# Laboratory results taken from patent publication US7981927B2, “Steroids derivatives as selective progesterone receptor modulators” (Janssen Pharmaceutica N.V., priority 2007, dated 2011).
# pIC50: −log10 of the molar value.
# Test system: T47D human breast cancer cells
# Experiment: T47D human breast cancer cells alkaline phosphatase assay
# Format: cell-based
# Conditions: 24 h with test compound, alkaline phosphatase luminescence readout
# Protocol: T47D human breast cancer cells were grown in RPMI medium without phenol red (Invitrogen) containing 10% (v/v) heat-inactivated fetal bovine serum (FBS; Hyclone), 1% (v/v) penicillin-streptomycin (Invitrogen), 1% (w/v) glutamine (Invitrogen), and […] insulin (Sigma). Incubation conditions were 37° C. in a humidified 5% (v/v) carbon dioxide environment.
# The cells were plated in 96-well tissue culture plates at 10,000 cells per well in assay medium [RPMI medium without phenol red (Invitrogen) containing 5% (v/v) charcoal-treated FBS (Hyclone) and 1% (v/v) penicillin-streptomycin (Invitrogen)]. Two days later, the medium was decanted and test compound or control were added at a final concentration of 0.1% (v/v) dimethyl sulfoxide in fresh assay medium. Twenty-four hours later, an alkaline phosphatase assay was performed using a SEAP kit (BD Biosciences Clontech, Palo Alto, Calif.). Briefly, the medium was decanted and the cells were fixed for 30 minutes at room temperature with 5% (v/v) formalin (Sigma). The cells were washed once with room temperature Hank's buffered saline solution (Invitrogen). […] After 1 hour incubation at room temperature in the dark, the lysate was transferred to a white 96-well plate (Dynex) and luminescence was read using a LuminoSkan Ascent (Thermo Electron, Woburn, Mass.). […]
row,pIC50,SMILES
1,6.12,"CN(C)c1ccc([C@@H]2C[C@]3(C)C(=O)OCC[C@H]3[C@@H]3CCC4=CC(=O)CCC4=C23)cc1 (stereo in doubt) [compound 1, 11-(4-Dimethylamino-phenyl)-12a-methyl-3,4,4a,5,6,9,10,11,12,12a-decahydro-4bH-2-oxa-chrysene-1,8-dione]"
2,7.48,"CC#C[C@]1(O)OCC[C@H]2[C@@H]3CCC4=CC(=O)CCC4=C3[C@@H](c3ccc(N(C)C)cc3)C[C@@]21C (stereo in doubt) [compound 2, 11-(4-Dimethylamino-phenyl)-1-hydroxy-12a-methyl-1-prop-1-ynyl-1,3,4,4a,4b,5,6,9,10,11,12,12a-dodecahydro-2-oxa-chrysen-8-one]"
